Among the data in PubChem BioAssay AID1259407 (Chemical Carcinogenesis Research Information System (CCRIS), 2018) are mutagenic call values, retold here.

The source made the active and inactive calls. No rule for the calls is given here.

For this series, the system named is CCRIS mutagenicity, Ames/micronucleus/aberration tests. Nature of the series: CCRIS mutagenicity studies.
The mark [1] stands for this setting: Test System: AMES SALMONELLA TYPHIMURIUM, Strain/Indicator: TA98, Metabolic Activation: NONE, Method: STANDARD PLATE.
Setting [2] is: Test System: AMES SALMONELLA TYPHIMURIUM, Strain/Indicator: TA98, Metabolic Activation: RAT, LIVER, S-9, AROCLOR 1254, Method: STANDARD PLATE.
The mark [3] stands for this setting: Test System: AMES SALMONELLA TYPHIMURIUM, Strain/Indicator: TA100, Metabolic Activation: NONE, Method: STANDARD PLATE.
Setting [4] is: Test System: AMES SALMONELLA TYPHIMURIUM, Strain/Indicator: TA100, Metabolic Activation: RAT, LIVER, S-9, AROCLOR 1254, Method: STANDARD PLATE.
Where [5] appears, read: Test System: AMES SALMONELLA TYPHIMURIUM, Strain/Indicator: TA1535, Metabolic Activation: NONE, Method: STANDARD PLATE.
Where [6] appears, read: Test System: AMES SALMONELLA TYPHIMURIUM, Strain/Indicator: TA1535, Metabolic Activation: RAT, LIVER, S-9, AROCLOR 1254, Method: STANDARD PLATE.
The mark [7] stands for this setting: Test System: AMES SALMONELLA TYPHIMURIUM, Strain/Indicator: TA1537, Metabolic Activation: NONE, Method: STANDARD PLATE.
Setting [8] is: Test System: AMES SALMONELLA TYPHIMURIUM, Strain/Indicator: TA1537, Metabolic Activation: RAT, LIVER, S-9, AROCLOR 1254, Method: STANDARD PLATE.
Setting [9] is: Test System: AMES SALMONELLA TYPHIMURIUM, Strain/Indicator: TA1538, Metabolic Activation: NONE, Method: STANDARD PLATE.
[10] abbreviates: Test System: AMES SALMONELLA TYPHIMURIUM, Strain/Indicator: TA1538, Metabolic Activation: RAT, LIVER, S-9, AROCLOR 1254, Method: STANDARD PLATE.
[11] abbreviates: Test System: AMES SALMONELLA TYPHIMURIUM, Strain/Indicator: TA100, Metabolic Activation: NONE, Method: PREINCUBATION

In the case of `CC(=O)Nc1cc(O)c2ccc3cccc4ccc1c2c34`, the mutagenic call by setting is: (Test System: AMES SALMONELLA TYPHIMURIUM, Strain/Indicator: TA98(1,8-DNP6), Metabolic Activation: NONE, Method: STANDARD PLATE) “active; positive”; (Test System: AMES SALMONELLA TYPHIMURIUM, Strain/Indicator: TA98(1,8-DNP6), Metabolic Activation: RAT, LIVER, S-9, AROCLOR 1254, Method: STANDARD PLATE) “active; positive”; under setting [1], “active; positive”; under setting [2], “active; positive”; (Test System: AMES SALMONELLA TYPHIMURIUM, Strain/Indicator: YG1024, Metabolic Activation: NONE, Method: STANDARD PLATE) “active; positive”; (Test System: AMES SALMONELLA TYPHIMURIUM, Strain/Indicator: YG1024, Metabolic Activation: RAT, LIVER, S-9, AROCLOR 1254, Method: STANDARD PLATE) “active; positive”.
Turning to `CN1CCC(=C2c3ccccc3C=Cc3ccccc32)CC1`, the mutagenic call was “inactive; negative” under setting [1]; “inactive; negative” under setting [2]; “inactive; negative” under setting [3]; “inactive; negative” under setting [4]; “inactive; negative” under setting [5]; “inactive; negative” under setting [6]. The mutagenic call is, setting by setting: under setting [7], “inactive; negative”; under setting [8], “inactive; negative”; under setting [9], “inactive; negative”; under setting [10], “inactive; negative”.
Regarding `O=C1CCC(=O)N1c1cc(Cl)cc(Cl)c1`, the mutagenic call was “inactive; negative” under setting [1], “inactive; negative” under setting [2], “inactive; negative” under setting [3] and “inactive; negative” under setting [4].
With `CCCCCCCCCCCCCCCC(=O)OC[C@H](O)[C@H]1OC(=O)C(O)=C1O`, the mutagenic call is “inactive; negative” (Test System: AMES SALMONELLA TYPHIMURIUM, Strain/Indicator: TA97, Metabolic Activation: NONE, Method: PREINCUBATION); “inactive; negative” (Test System: AMES SALMONELLA TYPHIMURIUM, Strain/Indicator: TA97, Metabolic Activation: RAT, LIVER, S-9, AROCLOR 1254, Method: PREINCUBATION); “inactive; negative” under setting [1]; “inactive; negative” under setting [2]; “inactive; negative” under setting [3]; “inactive; negative” under setting [4]. In addition, the mutagenic call is “inactive; negative” (Test System: AMES SALMONELLA TYPHIMURIUM, Strain/Indicator: TA102, Metabolic Activation: NONE, Method: PREINCUBATION); “inactive; negative” (Test System: AMES SALMONELLA TYPHIMURIUM, Strain/Indicator: TA102, Metabolic Activation: RAT, LIVER, S-9, AROCLOR 1254, Method: PREINCUBATION); “inactive; negative” under setting [5]; “inactive; negative” under setting [6]; “inactive; negative” under setting [7]; “inactive; negative” under setting [8]. For the same molecule, the mutagenic call is “inactive; negative” under setting [9]; “inactive; negative” under setting [10]; “inactive; negative” (Test System: E. COLI, Strain/Indicator: WP2, Metabolic Activation: NONE, Method: STANDARD PLATE); “inactive; negative” (Test System: E. COLI, Strain/Indicator: WP2, Metabolic Activation: RAT, LIVER, S-9, AROCLOR 1254, Method: STANDARD PLATE).
Consider `P`, for which the mutagenic call (Test System: AMES SALMONELLA TYPHIMURIUM, Strain/Indicator: TA98, Metabolic Activation: NONE, Method: GAS EXPOSURE) was “inactive; negative”; the mutagenic call (Test System: AMES SALMONELLA TYPHIMURIUM, Strain/Indicator: TA98, Metabolic Activation: RAT LIVER S-9, PHENOBARBITAL AND BETA-NAPHTHOFLAVONE, Method: GAS EXPOSURE) was “inactive; negative”; the mutagenic call (Test System: AMES SALMONELLA TYPHIMURIUM, Strain/Indicator: TA100, Metabolic Activation: NONE, Method: GAS EXPOSURE) is “inactive; negative”; the mutagenic call (Test System: AMES SALMONELLA TYPHIMURIUM, Strain/Indicator: TA100, Metabolic Activation: RAT LIVER S-9, PHENOBARBITAL AND BETA-NAPHTHOFLAVONE, Method: GAS EXPOSURE) was “inactive; negative”; the mutagenic call (Test System: AMES SALMONELLA TYPHIMURIUM, Strain/Indicator: TA1535, Metabolic Activation: NONE, Method: GAS EXPOSURE) was “inactive; negative”; the mutagenic call (Test System: AMES SALMONELLA TYPHIMURIUM, Strain/Indicator: TA1535, Metabolic Activation: RAT LIVER S-9, PHENOBARBITAL AND BETA-NAPHTHOFLAVONE, Method: GAS EXPOSURE) was “inactive; negative”. Moreover, the mutagenic call by setting is: (Test System: AMES SALMONELLA TYPHIMURIUM, Strain/Indicator: TA1537, Metabolic Activation: NONE, Method: GAS EXPOSURE) “inactive; negative”; (Test System: AMES SALMONELLA TYPHIMURIUM, Strain/Indicator: TA1537, Metabolic Activation: RAT LIVER S-9, PHENOBARBITAL AND BETA-NAPHTHOFLAVONE, Method: GAS EXPOSURE) “inactive; negative”; (Test System: E.COLI, Strain/Indicator: WP2UVRA, Metabolic Activation: NONE, Method: GAS EXPOSURE) “inactive; negative”; (Test System: E.COLI, Strain/Indicator: WP2UVRA, Metabolic Activation: RAT LIVER S-9, PHENOBARBITAL AND BETA-NAPHTHOFLAVONE, Method: GAS EXPOSURE) “inactive; negative”.
As for `CN1CCN(c2ccc3nc(CCCc4ccc5nc(-c6ccc(N(CCCl)CCCl)cc6)[nH]c5c4)[nH]c3c2)CC1`, the mutagenic call was “inactive; negative” under setting [1]; “inactive; negative” under setting [3]; “active; positive” (Test System: AMES SALMONELLA TYPHIMURIUM, Strain/Indicator: TA102, Metabolic Activation: NONE, Method: STANDARD PLATE).
With `CN(C)c1ncnc2nc[nH]c12`, the mutagenic call is “inactive; negative” (Test System: AMES SALMONELLA TYPHIMURIUM, Strain/Indicator: TA98, Metabolic Activation: NONE, Method: PREINCUBATION); “inactive; negative” (Test System: AMES SALMONELLA TYPHIMURIUM, Strain/Indicator: TA98, Metabolic Activation: RAT, LIVER, S9, Method: PREINCUBATION); “inactive; negative” under setting [11]; “inactive; negative” (Test System: AMES SALMONELLA TYPHIMURIUM, Strain/Indicator: TA100, Metabolic Activation: RAT, LIVER, S9, Method: PREINCUBATION); “active; positive” (Test System: AMES SALMONELLA TYPHIMURIUM, Strain/Indicator: TA1535, Metabolic Activation: NONE, Method: PREINCUBATION); “active; positive” (Test System: AMES SALMONELLA TYPHIMURIUM, Strain/Indicator: TA1535, Metabolic Activation: RAT, LIVER, S9, Method: PREINCUBATION). Also, the mutagenic call was “inactive; negative” (Test System: AMES SALMONELLA TYPHIMURIUM, Strain/Indicator: TA1537, Metabolic Activation: NONE, Method: PREINCUBATION); “inactive; negative” (Test System: AMES SALMONELLA TYPHIMURIUM, Strain/Indicator: TA1537, Metabolic Activation: RAT, LIVER, S9, Method: PREINCUBATION); “inactive; negative” (Test System: E. COLI, Strain/Indicator: WP2UVRA, Metabolic Activation: NONE, Method: PREINCUBATION); “inactive; negative” (Test System: E. COLI, Strain/Indicator: WP2UVRA, Metabolic Activation: RAT, LIVER, S9, Method: PREINCUBATION).
In the case of `CC1=C(O)C(=O)C(O)CO1` (stereo not drawn), the mutagenic call under setting [11] is “active; positive” and the mutagenic call (Test System: AMES SALMONELLA TYPHIMURIUM, Strain/Indicator: TA100, Metabolic Activation: S-9, Method: PREINCUBATION) was “active; positive”.
As to `O=C(c1ccccc1)N(O)c1ccc2c(c1)Cc1ccccc1-2`, the mutagenic call under setting [2] is “active; positive”.
With `c1cc2c3c(c4c(ccc5ccccc54)cc3c1)C1=C2O1`, the mutagenic call (Test System: CHINESE HAMSTER V-79, Strain/Indicator: V-79/6-THIOGUANINE, Metabolic Activation: NONE, Method: SUSPENSION/PLATE) is “active; positive”.
